The values that follow come from patent US11925644B2, “Crystalline salts of 5-methyl-(6S)-tetrahydrofolic acid and l-leucine ethyl ester” (MERCK PATENT GMBH, priority 2018, dated 2024).

The conditions of series [1]: purified/de-ionized water, room temperature, agitated one minute, gravimetric. The protocol: (§1) 2.00 mL of purified/de-ionized water (for instance water for chromatography) was added to the solid using an adjustable volumetric pipette. The mixture was vigorously agitated at room temperature for one minute. […] The solution was filtered by centrifugal filtration and 1.50 mL of the aqueous solution was transferred into a tared glass vial (about 10 mL volume). The water was evaporated in an air dryer at 40° C. for about 15 hours, then at 50° C. for about eight hours, subsequently drying was completed at 50° C. under vacuum (10 to 20 mbar) for about 13 hours. The solubility was determined by gravimetric evaluation of the solid residue.
as §1, with “The suspension” for “The solution”

The nature of the next series: Water content (TG-FTIR). It is filed as physicochemical. The protocol: Thermogravimetric measurements were carried out with a Netzsch Thermo-Microbalance TG 209 coupled to a Bruker FTIR Spectrometer Vector 22 (sample pans with a pinhole, N2 atmosphere, heating rate 10 K/min).
About 420 mg of the solid material obtained in Example 2 was weighed into a filter centrifuge device and 2.0 mL of water is added followed by centrifugation under ambient conditions. This wash step is repeated twice more using 0.5 mL of water. The wet filter cake is then transferred to a fritted glass filter and air dried by drawing ambient air (about 22° C./about 21% r.h.) through the glass filter for about 10 minutes.
(§2) DVS measurements were performed as follows: The sample was placed on an aluminum holder on top of a microbalance and allowed to equilibrate at 50% RH before starting the pre-defined humidity program: • (1) two hours kept at 50% constant relative humidity (RH) then • (2) reduced to 0% RH at a rate of 5% per hour • (3) maintained RH at 0% for five hours • (4) raised RH to 75% at a rate of 5% per hour • (5) maintained RH at 75% for five hours • (6) reduced to 0% RH at a rate of 5% per hour • (7) maintained RH at 0% for five hours • (8) raised RH to 75% at a rate of 5% per hour • (9) reduced to 50% RH at a rate of 5% per hour • (10) maintained RH at 50% for about one hour

The nature of series [2]: Hygroscopicity by dynamic water vapor sorption analysis (DVS). It is filed as physicochemical. Conditions: 0 to 75% r.h. The procedure:
DVS measurements are typically performed with an SPS11-100n “Sorptions Prüfsystem” from ProUmid (formerly “Projekt Messtechnik”), August-Nagel-Str. 23, 89079 Ulm (Germany).
as §2
The results are illustrated in FIG. 2.

The conditions of series [3]: cited from earlier work; for aqueous solubility: room temperature.

As for “5-methyl-(6S)-tetrahydrofolic acid calcium salt”, the kinetic solubility in series [1] is 9.0 mg of 5-methyl-(6S)-tetrahydrofolic acid per mL. The compound also yielded a water content in “Water content (TG-FTIR)” (method not stated) of 12.4%. Besides, the “change of water content within tested relative humidity range” value in series [2] was “about 7.4%”.
With `CCOC(=O)[C@@H](N)CC(C)C.CN1c2c([nH]c(N)nc2=O)NC[C@@H]1CNc1ccc(C(=O)N[C@@H](CCC(=O)O)C(=O)O)cc1` [5-methyl-(6S)-tetrahydrofolic acid L-leucine ethyl ester 1:1 salt], in the series “Water content (TG-FTIR)” (TG-FTIR analysis), the water content entry is reported as “about 0.7%”.
For the compound `CN1c2c(nc(N)[nH]c2=O)NC[C@@H]1CNc1ccc(C(=O)N[C@@H](CCC(=O)O)C(=O)O)cc1` [5-methyl-(6S)-tetrahydrofolic acid], in series [3] (water), the “solubility in water” value is “poorly soluble in water”.
As for `CN1c2c([nH]c(N)nc2=O)NC[C@@H]1CNc1ccc(C(=O)N[C@@H](CCC(=O)[O-])C(=O)[O-])cc1.[Ca+2]` [Form I, calcium salt of 5-methyl-(6S)-tetrahydrofolic acid], in series [3], the aqueous solubility result is reported as “about 10 mg/ml”.
For the compound `CN1c2c([nH]c(N)nc2=O)NC[C@@H]1CNc1ccc(C(=O)N[C@@H](CCC(=O)[O-])C(=O)[O-])cc1.[Ca+2]` [calcium salt (Form III), calcium salt of 5-methyl-(6S)-tetrahydrofolic acid], the aqueous solubility result in series [3] is given as “about 2.5 mg/ml”.
